Values quoted from earlier work as cited in patent US12453351B2, “Herbicide compatibility improvement” (Monsanto Technology LLC, priority 2005, dated 2025).

Conditions: at 25° C.

For `O=C(O)CNCP(=O)(O)O` [Glyphosate], the Solubility in water is listed as 1.16 % by weight.
